Test results taken from ChEMBL document CHEMBL1143281, “New analogues of agmatine with higher affinity to imidazoline receptors” (Bioorg Med Chem Lett, 2009).

Assays:
Nischarin [1] = target: T1, Nischarin (Rattus norvegicus, UniProt Q4G017); assay: Displacement of [3H]clonidine from imidazoline I1 receptor in Sprague-Dawley rat kidney by liquid scintillation counting
[2] = Displacement of [3H]2BFI from imidazoline I2 receptor in Sprague-Dawley rat brain by liquid scintillation counting
[3] = target: T2, Adrenergic receptor alpha-2 (Rattus norvegicus, UniProt P22086+P19328+P22909); assay: Displacement of [3H]RX821002 from alpha2 adrenoceptor in Sprague-Dawley rat kidney by liquid scintillation counting; format: tissue-based
T2 sequence (P22086 whole entry): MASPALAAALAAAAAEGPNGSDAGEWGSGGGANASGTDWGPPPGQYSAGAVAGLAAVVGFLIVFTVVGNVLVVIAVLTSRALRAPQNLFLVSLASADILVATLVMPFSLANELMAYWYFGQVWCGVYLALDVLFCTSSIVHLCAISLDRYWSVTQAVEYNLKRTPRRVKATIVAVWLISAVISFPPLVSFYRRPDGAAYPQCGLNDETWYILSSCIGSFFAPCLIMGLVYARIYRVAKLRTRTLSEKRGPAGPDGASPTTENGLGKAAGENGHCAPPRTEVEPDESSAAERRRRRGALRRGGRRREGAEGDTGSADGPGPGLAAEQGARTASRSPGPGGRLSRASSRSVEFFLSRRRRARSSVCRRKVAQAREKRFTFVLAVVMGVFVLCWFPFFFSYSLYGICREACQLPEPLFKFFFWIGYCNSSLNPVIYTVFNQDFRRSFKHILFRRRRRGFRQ
T2 sequence (P19328 whole entry): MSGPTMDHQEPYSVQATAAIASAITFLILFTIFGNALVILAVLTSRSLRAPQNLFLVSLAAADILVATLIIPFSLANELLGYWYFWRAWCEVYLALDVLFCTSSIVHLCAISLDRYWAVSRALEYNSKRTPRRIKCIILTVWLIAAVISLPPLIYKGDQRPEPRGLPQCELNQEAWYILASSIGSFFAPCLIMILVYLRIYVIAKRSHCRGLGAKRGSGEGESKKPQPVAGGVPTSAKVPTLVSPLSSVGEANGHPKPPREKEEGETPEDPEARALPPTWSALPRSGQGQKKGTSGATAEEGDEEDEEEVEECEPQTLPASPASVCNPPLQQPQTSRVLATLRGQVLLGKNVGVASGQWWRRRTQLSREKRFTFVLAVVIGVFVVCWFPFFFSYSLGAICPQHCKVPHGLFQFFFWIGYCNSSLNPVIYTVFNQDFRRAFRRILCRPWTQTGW
T2 sequence (P22909 whole entry): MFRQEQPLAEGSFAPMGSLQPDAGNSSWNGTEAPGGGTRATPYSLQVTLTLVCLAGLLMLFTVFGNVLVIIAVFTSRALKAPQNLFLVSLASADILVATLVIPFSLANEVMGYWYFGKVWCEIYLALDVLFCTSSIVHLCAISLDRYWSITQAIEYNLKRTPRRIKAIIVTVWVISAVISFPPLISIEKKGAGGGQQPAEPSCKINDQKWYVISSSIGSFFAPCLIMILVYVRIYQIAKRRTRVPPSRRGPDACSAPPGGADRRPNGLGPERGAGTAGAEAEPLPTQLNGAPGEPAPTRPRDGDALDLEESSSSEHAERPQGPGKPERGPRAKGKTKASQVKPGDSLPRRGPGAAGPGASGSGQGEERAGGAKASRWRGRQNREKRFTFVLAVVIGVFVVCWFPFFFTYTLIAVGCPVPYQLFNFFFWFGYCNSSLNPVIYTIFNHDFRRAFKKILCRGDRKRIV

Nischarin [4] = target: T1, Nischarin; assay: Displacement of [3H]clonidine from imidazoline I1 receptor in Wistar rat kidney by liquid scintillation counting
[5] = Displacement of [3H]2BFI from imidazoline I2 receptor in Wistar rat brain by liquid scintillation counting
[6] = target: T2, Adrenergic receptor alpha-2; assay: Displacement of [3H]RX821002 from alpha2 adrenoceptor in Wistar rat kidney by liquid scintillation counting; format: tissue-based

T1 sequence (Q4G017 whole entry): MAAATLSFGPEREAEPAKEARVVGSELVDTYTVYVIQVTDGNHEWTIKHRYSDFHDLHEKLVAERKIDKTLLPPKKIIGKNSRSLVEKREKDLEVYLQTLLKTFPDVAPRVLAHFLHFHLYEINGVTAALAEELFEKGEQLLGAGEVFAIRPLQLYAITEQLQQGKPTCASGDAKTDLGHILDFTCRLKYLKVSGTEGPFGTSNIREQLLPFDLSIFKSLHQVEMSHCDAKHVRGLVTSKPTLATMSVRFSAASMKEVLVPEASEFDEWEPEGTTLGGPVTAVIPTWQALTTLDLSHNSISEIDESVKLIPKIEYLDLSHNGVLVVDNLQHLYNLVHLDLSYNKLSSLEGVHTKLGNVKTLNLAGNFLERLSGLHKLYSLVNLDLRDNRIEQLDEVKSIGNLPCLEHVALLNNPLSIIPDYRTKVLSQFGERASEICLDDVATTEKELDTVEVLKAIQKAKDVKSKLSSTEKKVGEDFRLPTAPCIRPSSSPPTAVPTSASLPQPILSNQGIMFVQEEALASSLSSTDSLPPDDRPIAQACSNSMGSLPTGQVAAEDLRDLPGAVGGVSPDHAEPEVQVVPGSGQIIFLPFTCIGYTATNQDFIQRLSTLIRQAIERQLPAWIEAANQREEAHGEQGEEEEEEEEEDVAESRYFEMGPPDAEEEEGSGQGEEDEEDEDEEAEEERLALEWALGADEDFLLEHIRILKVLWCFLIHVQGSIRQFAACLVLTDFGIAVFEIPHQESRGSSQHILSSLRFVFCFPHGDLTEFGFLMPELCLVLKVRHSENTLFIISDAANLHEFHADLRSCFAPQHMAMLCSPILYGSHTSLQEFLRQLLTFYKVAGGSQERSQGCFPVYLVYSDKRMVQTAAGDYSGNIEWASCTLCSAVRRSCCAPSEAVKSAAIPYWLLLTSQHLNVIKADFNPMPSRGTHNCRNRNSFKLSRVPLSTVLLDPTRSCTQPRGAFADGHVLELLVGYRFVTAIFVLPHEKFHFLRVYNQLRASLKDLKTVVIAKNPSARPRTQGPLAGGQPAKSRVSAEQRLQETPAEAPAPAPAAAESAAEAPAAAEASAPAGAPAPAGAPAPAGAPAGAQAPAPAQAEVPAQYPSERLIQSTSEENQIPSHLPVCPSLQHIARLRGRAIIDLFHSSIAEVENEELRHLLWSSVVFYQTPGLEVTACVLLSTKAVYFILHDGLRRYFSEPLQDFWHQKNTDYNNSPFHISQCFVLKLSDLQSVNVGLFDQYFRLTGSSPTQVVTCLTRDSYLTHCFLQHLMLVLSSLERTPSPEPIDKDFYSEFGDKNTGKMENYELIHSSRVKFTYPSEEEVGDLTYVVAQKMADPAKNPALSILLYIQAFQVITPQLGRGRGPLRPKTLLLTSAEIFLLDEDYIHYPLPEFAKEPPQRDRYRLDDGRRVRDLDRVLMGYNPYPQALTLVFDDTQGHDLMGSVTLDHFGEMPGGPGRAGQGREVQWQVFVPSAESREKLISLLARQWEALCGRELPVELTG

Row | Structure (SMILES) | IC50 (Nischarin [1]) [µM] | Ki [2] [µM] | Ki [3] [µM] | IC50 (Nischarin [4]) [µM] | Ki [5] [µM] | Ki [6] [µM]
1 | CN(C)CC[C@H]1CN=CN1.Cl.Cl | 64 | > 100 | > 100 |  |  | 
2 | Br.NCC[C@@H]1CN=C(N)N1 | > 100 | > 100 | 18.82 |  |  | 
3 | Br.CC1=NC[C@H](CCN)N1 | 115 | 1.84 | 76.44 |  |  | 
4 | Br.CC(=O)NCC[C@@H]1CN=C(N)N1 | 383 | > 100 | > 100 |  |  | 
5 | CC(=O)NCC[C@H]1CN=CN1.CC(=O)O | 213 | > 100 | > 100 |  |  | 
6 | Br.NCC[C@H]1CN=C(N)N1 | 0.477 | 55 | 11.77 |  |  | 
7 | Br.NCC[C@@H]1CN=CN1 | 16.5 | > 100 | 62.07 |  |  | 
8 | Br.CN(C)CC[C@H]1CN=C(N)N1 | 44.8 | > 100 | > 52.86 |  |  | 
9 | Br.NCC[C@H]1CN=CN1 | > 100 | 65.8 | > 100 |  |  | 
10 | Br.CC(=O)NCC[C@H]1CN=C(N)N1 | 235 | > 100 | > 100 |  |  | 
11 | NCCCCN=C(N)N [AGMATINE] |  |  |  | 36.5 | 417 | 31.7
12 | Clc1cccc(Cl)c1NC1=NCCN1 [CLONIDINE] | 0.366 | 0.364 |  |  |  | 
